Measurements as given in US20250288561A1, “NEZULCITINIB FOR DELIVERY BY NEBULIZED ORAL INHALATION” (THERAVANCE BIOPHARMA R&D IP, LLC, priority 2022, published 2025).

Assays:
[1] = Phase 1 open-label study: safety and tolerability of single inhaled nezulcitinib doses under supplemental oxygenation scenarios; assay type: in vivo, human
Excerpt: Part B: assessed the safety and tolerability of nezulcitinib following single inhaled doses administered in the setting of various supplemental oxygenation scenarios in healthy participants.
Safety was monitored through physical examinations including, at a minimum, examination of respiratory, cardiovascular, and gastrointestinal systems, with the option for further focused examination of additional systems as necessary based on reported symptoms/AEs, vital signs, 12-lead safety ECGs, spirometry, body weight monitoring, pulse oximetry, clinical laboratory tests (including, but not limited to, hematology, clinical chemistry profile, coagulation, and urinalysis), and AEs.
AEs were coded using the most current version of Medical Dictionary for Regulatory Activities (MedDRA®).
Summaries of administration-emergent adverse events (AEAEs) were presented by SOC, preferred term, and the frequency and percentage of participants reporting each observed event. The frequency of participants who experience AEAEs was summarized overall and by study part and administration. AEs were also summarized by relationship to administration (study drug) and severity.
All clinical laboratory results, 12-lead safety ECGs, spirometry measurements, pulse oximetry, vital signs measurements, and their change from baseline, were summarized by study part, administration, and time point of collection.
Safety (i.e., physical examinations, vital signs, 12-lead safety ECGs, spirometry, clinical laboratory tests, and AEs) were assessed throughout the study; blood, urine, and expired air samples were collected for safety assessments. Blood oxygenation levels were monitored via pulse oximetry prior to and during administration of supplemental oxygen. Discontinued participants were not replaced.

NK cells = test: Earlier phase 1 clinical trial: absolute NK cell counts after multiple dosing; assay type: in vivo, human; details: any dose level (1, 3, or 10 mg)
Experimental: Compound 1 was evaluated in a phase 1 clinical trial and dosed in humans through nebulized inhalation at 1 mg, 3 mg, and 10 mg for up to 7 days. […] The pharmacokinetics of inhaled compound 1 are consistent with low plasma exposures after inhaled administration. […] Additionally, absolute NK cell counts were evaluated after multiple-dosing to assess the potential for systemic pharmacologic effects associated with JAK inhibition by compound 1. […] The lack of reduction in NK cell counts is also consistent with the lack of systemic JAK inhibition. […] Other systemically mediated hematological changes associated with JAK inhibition, including neutrophil and hemoglobin reductions as well as lipid changes, were not observed with inhaled administration of compound 1.

JAK2 = JAK2 (Homo sapiens, UniProt O60674); test: JAK enzyme inhibition; assay type: biochemical
Chain of JAK2 (O60674 whole entry): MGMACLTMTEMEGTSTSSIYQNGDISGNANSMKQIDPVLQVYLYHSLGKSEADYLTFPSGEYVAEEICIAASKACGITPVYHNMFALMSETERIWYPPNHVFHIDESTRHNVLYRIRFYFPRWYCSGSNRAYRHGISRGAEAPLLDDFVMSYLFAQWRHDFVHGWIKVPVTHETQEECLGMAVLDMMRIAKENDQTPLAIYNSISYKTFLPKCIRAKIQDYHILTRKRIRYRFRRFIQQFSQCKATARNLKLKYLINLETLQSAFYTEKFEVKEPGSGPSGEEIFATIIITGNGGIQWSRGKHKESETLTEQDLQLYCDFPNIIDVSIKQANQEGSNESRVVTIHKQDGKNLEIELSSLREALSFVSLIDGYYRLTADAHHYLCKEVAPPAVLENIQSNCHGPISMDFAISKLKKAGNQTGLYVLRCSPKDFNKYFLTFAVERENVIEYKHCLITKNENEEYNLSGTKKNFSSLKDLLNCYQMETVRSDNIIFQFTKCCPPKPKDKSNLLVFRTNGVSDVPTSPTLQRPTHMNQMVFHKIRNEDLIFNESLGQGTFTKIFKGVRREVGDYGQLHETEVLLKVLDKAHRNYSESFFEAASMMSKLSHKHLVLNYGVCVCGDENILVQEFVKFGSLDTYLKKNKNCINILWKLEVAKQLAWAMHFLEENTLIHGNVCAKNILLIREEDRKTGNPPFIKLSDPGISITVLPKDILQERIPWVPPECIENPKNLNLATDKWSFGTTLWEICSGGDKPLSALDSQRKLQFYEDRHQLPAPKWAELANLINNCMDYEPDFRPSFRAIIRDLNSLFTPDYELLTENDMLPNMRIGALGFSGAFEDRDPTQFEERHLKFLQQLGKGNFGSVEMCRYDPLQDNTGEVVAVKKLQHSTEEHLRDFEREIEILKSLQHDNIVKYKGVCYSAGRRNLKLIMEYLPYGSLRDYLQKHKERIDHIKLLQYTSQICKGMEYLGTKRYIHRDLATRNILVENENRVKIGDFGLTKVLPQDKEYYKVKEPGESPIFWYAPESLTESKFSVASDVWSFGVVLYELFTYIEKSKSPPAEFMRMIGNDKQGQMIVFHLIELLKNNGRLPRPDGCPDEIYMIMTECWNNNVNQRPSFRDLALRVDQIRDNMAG

Structure (SMILES): CCc1cc(O)ccc1-c1ccc2c(-c3nc4c([nH]3)CN(C(C)C)[C@H](C(=O)N3CC(N(C)C)C3)C4)n[nH]c2c1 [Compound 1, (S)-(3-(dimethylamino)azetidin-1-yl)(2-(6-(2-ethyl-4-hydroxyphenyl)-1H-indazol-3-yl)-5-isopropyl-4,5,6,7-tetrahydro-3H-imidazo[4,5-c]pyridin-6-yl)methanone]
- adverse events, subjects ([1]; 2 of 14 subjects, nasal congestion, epistaxis, considered not related to study drug): 14.3%
- safety laboratory measures, electrocardiograms, vital signs, pulse oximetry, spirometry ([1]; all administrations): no clinically relevant changes
- severity of adverse events ([1]; all adverse events): mild severity
- absolute NK cell counts relative to baseline (NK cells): No reductions in NK cells were observed
- inhibition of JAK2 (JAK2): potent inhibitor
